Results on two compounds are retold here after publication PMC9737772, “Synthesis and Anti-Inflammatory Activity of 1-Methylhydantoin Cinnamoyl Imides” (Molecules, 2022).

“Also recorded” adds a separate entry of the source.

Data set [1] in a line: Cytotoxicity determination by CCK-8. Particulars: mouse, RAW264.7 macrophage cells, RAW264.7 cells. In kind it is cell-based. The method, then:
(§1) RAW264.7 mouse macrophages were purchased from Zhongqiao Xinzhou and cultured in DMEM supplemented with 10% fetal bovine serum (FBS) and 1% penicillin/streptomycin in a 37 °C, 5% CO2 incubator. The cells were passaged every two days to maintain the monolayer cell state.
The CCK-8 kit was used to determine the cytotoxicity of the target compounds (1–5) to RAW264.7 cells. The well-growing cells were subcultured in a 96-well plate. After the cells adhered to the wall, the experimental group was added with a medium containing different concentrations of compounds to make the final concentration reach 5, 10, 20, 40, 80, 160 and 320 μmoL/L. The control group was added with a medium without compound, and a blank group without cells or compound was set at the same time. After culturing in a constant temperature incubator for a period, CCK-8 solution was added to produce yellow formazan product. The OD value was measured by the microplate reader at the detection wavelength of 450 nm, and the cell survival rate was calculated. The cell survival rate formula is as follows:(1) Cell Survival Rate %=ODe−ODb/ODc−ODb×100% where ODe was the OD value of the experimental group, ODb was the OD value of the blank group, and ODc was the OD value of the control group.

Data set [2] deals with TNF-α secretion in RAW264.7 cells induced by LPS. The experiment in a line: TNF-α content in supernatant of LPS-induced RAW264.7 cells (ELISA). In kind it is cell-based, mouse. Here is the method:
Tumor necrosis factor-α (TNF-α) is a pleiotropic proinflammatory cytokine, known for its proinflammatory activity. To explore the inhibitory effects of five compounds on TNF-α, ELISA was used to determine the content of inflammatory factor TNF-α in the supernatant of RAW264.7 cells stimulated by LPS. RAW264.7 cells secreted a large amount of inflammatory-factor TNF-α 24 h after LPS (1 ug/mL) induction.
as §1
(§2) The RAW264.7 cells in the logarithmic growth phase were seeded in a 24-well plate and placed in a 37 °C, 5% CO2 constant temperature incubator for culture. After 24 h, the culture medium was discarded. The blank group was added with 10% FBS DMEM 1 mL. The group was added with a medium containing 1 ug/mL LPS, and the experimental group was added with LPS and different concentrations of the target compound to make the final volume 1 mL. After 24 h of culture, the cell supernatant was taken and stored in a refrigerator at −20 °C for later use. The Griess kit was used to determine the concentration of NO in the supernatant, and a double antibody sandwich ELISA kit was used to detect TNF-α and IL-1β.

Data set [3] relates to IL-1β secretion in RAW264.7 cells induced by LPS. The experiment in a line: IL-1β content in supernatant of LPS-induced RAW264.7 cells (ELISA). Format: cell-based, mouse.
Description: Interleukin-1β (IL-1β) has strong proinflammatory activity and can induce the production of a variety of proinflammatory mediators, such as cytokines and chemokines. In this work, the ELISA method was used to determine the IL-1β content in the supernatant of RAW264.7 cells stimulated by LPS to evaluate the effects of five compounds on IL-1β secretion.
as §1, §2

In data set [4] the test system is xylene-induced ear edema in mice. As to the kind of experiment: Xylene-induced ear edema in mice. In kind it is in vivo, Kunming mice. Particulars: for Degree of Edema: 30 μL xylene, 30 min, mean ± SD, n = 6; for Inhibition of ear swelling: xylene-induced ear edema. Here is the method:
To evaluate the differences in anti-inflammatory effects of the five compounds, the in vivo anti-inflammatory experiment was conducted based on the acute inflammation model of ear swelling induced by xylene. Under the inflammatory effect of 30 μL of xylene, the degree of ear swelling in the blank group and each experimental group was different. […] With an increase in dose the degree of ear swelling decreased, and the effect of ear swelling inhibition was more significant at high dose (100 mg/kg). Under the action of drugs, the five target compounds (1–5) have significant inhibitory effects on ear swelling (Figure 6).
Adult male Kunming mice (18–20 g) were bought from Liaoning Changsheng Biotechnology Co., Ltd. (Shenyang, China, License No. SCXK (Liao) 2015-0001). The breeding is carried out under standard conditions without pathogens (constant room temperature 20–22 °C, 55 ± 5% humidity, 12 h light–dark cycle and free access to food and water). The research protocol has been approved by the Animal Experiment Ethics Committee of the School of Pharmacy of Jilin University (20190048). All experimental operations follow the principles of laboratory animal care, and all animal experiments are conducted in accordance with the Guide for the Care and Use of Laboratory Animals (released by the National Research Council).
In this experiment, Kunming mice were randomly divided into two groups. One group was given 5% sodium carboxymethyl cellulose solution as the blank group, and the other group was given different concentrations of the target compound as the experimental group (high, medium and low doses); continuous intragastric administration was two days and the volume of intragastric administration was 0.2 mL. One hour after the last administration, 30 μL of xylene was evenly smeared on both sides of the mouse’s right ear. After 30 min, the mouse’s right ear was obviously red and swollen and the capillary congestion was severe. Cervical vertebrae were dislocated and sacrificed. The ears on both sides were quickly cut off, an 8 mm ear punch was used to punch holes at the same position on the ears on both sides and they were immediately weighed to calculate the weight difference.
The formula for the difference in ear weight is as follows:(2) D=Wr−Wl where Wr was the weight of the right ear and Wl was the weight of the left ear.
The formula for the inhibition rate of ear swelling is as follows:(3) Inhibition %=Dc−Dt/Dc×100% where Dc was the extent of ear edema of the control group and Dt was the extent of ear edema of the treatment group.

Where [5] appears, read: 80 μM, LPS 1 ug/mL, 24 h, RAW264.7, vs model group.
Where [6] appears, read: LPS-stimulated RAW264.7, concentration not stated.
Setting [7] is: 80 μM, LPS, 24 h, RAW264.7, vs model group.
The mark [8] stands for this setting: 25 mg/kg intragastric for two days.
Setting [9] is: 50 mg/kg intragastric for two days.
The mark [10] stands for this setting: 100 mg/kg (high dose) intragastric.
The mark [11] stands for this setting: 100 mg/kg intragastric for two days.

Compound `CN1CC(=O)N(C(=O)/C=C/c2ccco2)C1=O` [Compound 2, (E)-3-(3-(furan-2-yl)acryloyl)-1-methylimidazolidine-2,4-dione] showed a CC50 in data set [1] of 329 µM. In addition, the “inhibition of TNF-α secretion” value in data set [2] (20 μM, LPS 1 ug/mL, 24 h, RAW264.7, vs model group) is on record as “no obvious inhibitory effect on TNF-α”; in data set [2] (setting [5]), “significantly reduce the secretion of TNF-α”; in data set [2] (setting [6]), “reduce the secretion of TNF-α”. For the same compound, the “inhibition of IL-1β secretion” value in data set [3] (20 μM, LPS, 24 h, RAW264.7, vs model group) was “no obvious inhibitory effect on IL-1β”; in data set [3] (setting [7]), “significant inhibitory effect on the secretion of IL-1β”; in data set [3] (setting [6]), “reduce the secretion of TNF-α and IL-1β”. The results for the “Degree of Edema” value in data set [4] (setting [8]), in data set [4] (setting [9]) and in data set [4] (setting [11]) were 8.68 ± 0.79 mg, 7.96 ± 0.23 mg and 6.19 ± 1.13 mg, respectively. The figures for the “Inhibition of ear swelling” value in data set [4] (25 mg/kg intragastric), in data set [4] (50 mg/kg intragastric) and in data set [4] (setting [10]) were 29.14%, 35.02% and 49.47%, respectively.
`CC(=O)Oc1ccc(/C=C/C(=O)N2C(=O)CN(C)C2=O)cc1` [Compound 4, (E)-4-(3-(3-methyl-2,5-dioxoimidazolidin-1-yl)-3-oxoprop-1-en-1-yl)phenyl acetate] gave a CC50 in data set [1] of 302 µM. The “inhibition of TNF-α secretion” value in data set [2] (setting [5]) is listed as “significantly reduce the secretion of TNF-α; also recorded: most significant”; in data set [2] (setting [6]), “reduce the secretion of TNF-α; also recorded: significantly inhibited the secretion of inflammatory factors TNF-α”. Also, the “inhibition of IL-1β secretion” value in data set [3] (setting [7]) is “significant inhibitory effect on the secretion of IL-1β”; in data set [3] (setting [6]), “reduce the secretion of TNF-α and IL-1β; also recorded: significantly inhibited the secretion of inflammatory factors TNF-α and IL-1β”. Moreover, the “Degree of Edema” value in data set [4] (setting [8]) is 11.03 ± 0.32 mg; in data set [4] (setting [9]), 8.79 ± 0.76 mg; in data set [4] (setting [11]) it was 7.33 ± 0.51 mg. In addition, the figures for the “Inhibition of ear swelling” value in data set [4] (25 mg/kg intragastric), in data set [4] (50 mg/kg intragastric) and in data set [4] (setting [10]) were 9.96%, 28.24% and 40.16%, respectively.

As a reminder, the CC50 is the concentration giving 50% cytotoxicity.
